What was measured:
ISC-enriched organoids [1] = assay: Primary screen, 384-well 2.5-D organoid differentiation (ENR+CD, 6 days): carbachol-induced lysozyme secretion (LYZ.S); format: cell-based, murine; conditions: for Dose.FC.LYZ.S (log 2 fold change) / Dose.FC.LYZ.S (log 2 fold change, carbachol-induced lysozyme secretion): vs plate median; for Dose.FC.LYZ.S: FC vs plate median
Text: (§1) High-throughput screening.

ISC-enriched organoids [2] = assay: Primary screen, 384-well 2.5-D organoid differentiation (ENR+CD, 6 days): basal lysozyme secretion (LYZ.NS); format: cell-based, murine; conditions: for Dose.FC.LYZ.NS (log 2 fold change) / Dose.FC.LYZ.NS (log 2 fold change, basal lysozyme secretion): vs plate median; for Dose.FC.LYZ.NS: FC vs plate median; for Z.LYZ.NS: standard z score of FC
Text: as §1

ISC-enriched organoids [3] = assay: Primary screen, 384-well 2.5-D organoid differentiation (ENR+CD, 6 days, Target Selective Inhibitor Library, vs whole-plate median): ATP (CellTiter-Glo 3D, CTG); conditions: for Dose.FC.CTG (log 2 fold change) / Dose.FC.CTG (log 2 fold change, ATP): vs plate median; for Dose.FC.CTG: FC vs plate median; for Z.CTG: standard z score of FC
[4] = primary screen, dose 0.08 uM, ENR+CD 6 days
[5] = primary screen, dose 0.40 uM, ENR+CD 6 days
[6] = primary screen, dose 2.00 uM, ENR+CD 6 days
[7] = primary screen, dose 10.00 uM, ENR+CD 6 days

## O=C(NNc1nc2cc(F)ccc2n2cccc12)c1cnccn1 [SC144]
ISC-enriched organoids [1]; Dose 0.08 uM, primary screen
  Dose.FC.LYZ.S (log 2 fold change): 0.098
ISC-enriched organoids [1]; Dose 0.40 uM, primary screen
  Dose.FC.LYZ.S (log 2 fold change): 0.014
ISC-enriched organoids [1]; Dose 2.00 uM, primary screen
  Dose.FC.LYZ.S (log 2 fold change): −0.131
ISC-enriched organoids [1]; Dose 10.00 uM, primary screen
  Dose.FC.LYZ.S (log 2 fold change): −0.211
ISC-enriched organoids [2]; Dose 0.08 uM, primary screen
  Z.LYZ.NS (standard z score): 0.582
  Dose.FC.LYZ.NS (log 2 fold change): 0.067
ISC-enriched organoids [2]; Dose 0.40 uM, primary screen
  Z.LYZ.NS (standard z score): −0.112
  Dose.FC.LYZ.NS (log 2 fold change): −0.013
ISC-enriched organoids [2]; Dose 2.00 uM, primary screen
  Z.LYZ.NS (standard z score): −0.220
  Dose.FC.LYZ.NS (log 2 fold change): −0.025
ISC-enriched organoids [2]; Dose 10.00 uM, primary screen
  Z.LYZ.NS (standard z score): −1.355
  Dose.FC.LYZ.NS (log 2 fold change): −0.156
ISC-enriched organoids [3]; Dose 0.08 uM, primary screen
  Z.CTG (standard z score): 0.381
  Dose.FC.CTG (log 2 fold change): 0.160
ISC-enriched organoids [3]; Dose 0.40 uM, primary screen
  Z.CTG (standard z score): 0.309
  Dose.FC.CTG (log 2 fold change): 0.129
ISC-enriched organoids [3]; Dose 2.00 uM, primary screen
  Z.CTG (standard z score): −0.613
  Dose.FC.CTG (log 2 fold change): −0.257
ISC-enriched organoids [3]; Dose 10.00 uM, primary screen
  Z.CTG (standard z score): −2.113
  Dose.FC.CTG (log 2 fold change): −0.885

## CC(=O)Nc1cccc2c1c(Sc1ccc(Cl)cc1)c(C)n2CC(=O)O [AZD1981]
ISC-enriched organoids [1]; [4]
  Dose.FC.LYZ.S: 0.023 log 2 fold change
ISC-enriched organoids [1]; [5]
  Dose.FC.LYZ.S: 0.191 log 2 fold change
ISC-enriched organoids [1]; [6]
  Dose.FC.LYZ.S: 0.014 log 2 fold change
ISC-enriched organoids [1]; [7]
  Dose.FC.LYZ.S: 0.070 log 2 fold change
ISC-enriched organoids [2]; [4]
  Dose.FC.LYZ.NS: 0.009 log 2 fold change
ISC-enriched organoids [2]; primary screen, dose 0.08 uM
  Z.LYZ.NS: 0.081
ISC-enriched organoids [2]; [5]
  Dose.FC.LYZ.NS: 0.001 log 2 fold change
ISC-enriched organoids [2]; primary screen, dose 0.40 uM
  Z.LYZ.NS: 0.008
ISC-enriched organoids [2]; [6]
  Dose.FC.LYZ.NS: 0.001 log 2 fold change
ISC-enriched organoids [2]; primary screen, dose 2.00 uM
  Z.LYZ.NS: 0.011
ISC-enriched organoids [2]; [7]
  Dose.FC.LYZ.NS: 0.024 log 2 fold change
ISC-enriched organoids [2]; primary screen, dose 10.00 uM
  Z.LYZ.NS: 0.205
ISC-enriched organoids [3]; [4]
  Dose.FC.CTG: 0.400 log 2 fold change
ISC-enriched organoids [3]; primary screen, dose 0.08 uM
  Z.CTG: 0.955
ISC-enriched organoids [3]; [5]
  Dose.FC.CTG: 0.285 log 2 fold change
ISC-enriched organoids [3]; primary screen, dose 0.40 uM
  Z.CTG: 0.681
ISC-enriched organoids [3]; [6]
  Dose.FC.CTG: 0.099 log 2 fold change
ISC-enriched organoids [3]; primary screen, dose 2.00 uM
  Z.CTG: 0.236
ISC-enriched organoids [3]; [7]
  Dose.FC.CTG: 0.238 log 2 fold change
ISC-enriched organoids [3]; primary screen, dose 10.00 uM
  Z.CTG: 0.570

## CC1=C(C(=O)OC2CCCCC2)C(c2ccc([N+](=O)[O-])cc2)C2=C(CC(C)(C)CC2=O)N1 (stereo not shown) [FLI-06]
ISC-enriched organoids [1]; Dose 0.08 uM, ENR+CD, 6 days
  Dose.FC.LYZ.S: 0.079 log 2 fold change
ISC-enriched organoids [1]; Dose 0.40 uM, ENR+CD, 6 days
  Dose.FC.LYZ.S: 0.010 log 2 fold change
ISC-enriched organoids [1]; Dose 2.00 uM, ENR+CD, 6 days
  Dose.FC.LYZ.S: −0.077 log 2 fold change
ISC-enriched organoids [1]; Dose 10.00 uM, ENR+CD, 6 days
  Dose.FC.LYZ.S: −0.170 log 2 fold change
ISC-enriched organoids [2]; Dose 0.08 uM, ENR+CD, 6 days
  Dose.FC.LYZ.NS: 0.050 log 2 fold change
ISC-enriched organoids [2]; Dose 0.08 uM
  Z.LYZ.NS: 0.439
ISC-enriched organoids [2]; Dose 0.40 uM, ENR+CD, 6 days
  Dose.FC.LYZ.NS: −0.026 log 2 fold change
ISC-enriched organoids [2]; Dose 0.40 uM
  Z.LYZ.NS: −0.230
ISC-enriched organoids [2]; Dose 2.00 uM, ENR+CD, 6 days
  Dose.FC.LYZ.NS: −0.054 log 2 fold change
ISC-enriched organoids [2]; Dose 2.00 uM
  Z.LYZ.NS: −0.466
ISC-enriched organoids [2]; Dose 10.00 uM, ENR+CD, 6 days
  Dose.FC.LYZ.NS: −0.140 log 2 fold change
ISC-enriched organoids [2]; Dose 10.00 uM
  Z.LYZ.NS: −1.216
ISC-enriched organoids [3]; Dose 0.08 uM, ENR+CD, 6 days
  Dose.FC.CTG: 0.089 log 2 fold change
ISC-enriched organoids [3]; Dose 0.08 uM
  Z.CTG: 0.213
ISC-enriched organoids [3]; Dose 0.40 uM, ENR+CD, 6 days
  Dose.FC.CTG: 0.095 log 2 fold change
ISC-enriched organoids [3]; Dose 0.40 uM
  Z.CTG: 0.226
ISC-enriched organoids [3]; Dose 2.00 uM, ENR+CD, 6 days
  Dose.FC.CTG: 0.076 log 2 fold change
ISC-enriched organoids [3]; Dose 2.00 uM
  Z.CTG: 0.182
ISC-enriched organoids [3]; Dose 10.00 uM, ENR+CD, 6 days
  Dose.FC.CTG: −0.343 log 2 fold change
ISC-enriched organoids [3]; Dose 10.00 uM
  Z.CTG: −0.819

## CCn1c(N)c(C(=O)NC)c(=O)c2ccc(C#C[C@@](C)(O)COC)nc21 [SAR131675]
ISC-enriched organoids [1]; Dose 0.08 uM, primary screen
  Dose.FC.LYZ.S (log 2 fold change): 0.148
ISC-enriched organoids [1]; Dose 0.40 uM, primary screen
  Dose.FC.LYZ.S (log 2 fold change): 0.096
ISC-enriched organoids [1]; Dose 2.00 uM, primary screen
  Dose.FC.LYZ.S (log 2 fold change): 0.026
ISC-enriched organoids [1]; Dose 10.00 uM, primary screen
  Dose.FC.LYZ.S (log 2 fold change): 0.000
ISC-enriched organoids [2]; Dose 0.08 uM, primary screen
  Z.LYZ.NS (standard z score): 0.483
  Dose.FC.LYZ.NS (log 2 fold change): 0.055
ISC-enriched organoids [2]; Dose 0.40 uM, primary screen
  Z.LYZ.NS (standard z score): 0.774
  Dose.FC.LYZ.NS (log 2 fold change): 0.089
ISC-enriched organoids [2]; Dose 2.00 uM, primary screen
  Z.LYZ.NS (standard z score): 0.181
  Dose.FC.LYZ.NS (log 2 fold change): 0.021
ISC-enriched organoids [2]; Dose 10.00 uM, primary screen
  Z.LYZ.NS (standard z score): −0.766
  Dose.FC.LYZ.NS (log 2 fold change): −0.088
ISC-enriched organoids [3]; Dose 0.08 uM, primary screen
  Z.CTG (standard z score): 0.419
  Dose.FC.CTG (log 2 fold change): 0.175
ISC-enriched organoids [3]; Dose 0.40 uM, primary screen
  Z.CTG (standard z score): −0.201
  Dose.FC.CTG (log 2 fold change): −0.084
ISC-enriched organoids [3]; Dose 2.00 uM, primary screen
  Z.CTG (standard z score): 0.169
  Dose.FC.CTG (log 2 fold change): 0.071
ISC-enriched organoids [3]; Dose 10.00 uM, primary screen
  Z.CTG (standard z score): 0.149
  Dose.FC.CTG (log 2 fold change): 0.062

## VU 0364770
ISC-enriched organoids [1]; dose 0.08 uM
  Dose.FC.LYZ.S (log 2 fold change, carbachol-induced lysozyme secretion): 0.082
ISC-enriched organoids [1]; dose 0.40 uM
  Dose.FC.LYZ.S (log 2 fold change, carbachol-induced lysozyme secretion): 0.125
ISC-enriched organoids [1]; dose 2.00 uM
  Dose.FC.LYZ.S (log 2 fold change, carbachol-induced lysozyme secretion): 0.139
ISC-enriched organoids [1]; dose 10.00 uM
  Dose.FC.LYZ.S (log 2 fold change, carbachol-induced lysozyme secretion): 0.066
ISC-enriched organoids [2]; dose 0.08 uM
  Z.LYZ.NS (standard z score): 1.350
  Dose.FC.LYZ.NS (log 2 fold change, basal lysozyme secretion): 0.155
ISC-enriched organoids [2]; dose 0.40 uM
  Z.LYZ.NS (standard z score): 0.736
  Dose.FC.LYZ.NS (log 2 fold change, basal lysozyme secretion): 0.085
ISC-enriched organoids [2]; dose 2.00 uM
  Z.LYZ.NS (standard z score): 1.020
  Dose.FC.LYZ.NS (log 2 fold change, basal lysozyme secretion): 0.117
ISC-enriched organoids [2]; dose 10.00 uM
  Z.LYZ.NS (standard z score): 0.884
  Dose.FC.LYZ.NS (log 2 fold change, basal lysozyme secretion): 0.102
ISC-enriched organoids [3]; dose 0.08 uM
  Z.CTG (standard z score): 0.031
  Dose.FC.CTG (log 2 fold change, ATP): 0.013
ISC-enriched organoids [3]; dose 0.40 uM
  Z.CTG (standard z score): 0.204
  Dose.FC.CTG (log 2 fold change, ATP): 0.085
ISC-enriched organoids [3]; dose 2.00 uM
  Z.CTG (standard z score): 0.199
  Dose.FC.CTG (log 2 fold change, ATP): 0.083
ISC-enriched organoids [3]; dose 10.00 uM
  Z.CTG (standard z score): −0.246
  Dose.FC.CTG (log 2 fold change, ATP): −0.103
